Assay [1] deals with NO production in LPS and IFN-γ stimulated RAW264.7 cells. The assay is described as follows: Assay for NO accumulation in stimulated macrophages (Griess reaction). In kind it is cell-based. To be noted: Mus musculus, 24 hours; for IC50: 10 U/ml IFN-γ and 100 ng/ml LPS. The protocol: RAW264.7 were maintained in RPMI 1640 medium supplemented with 10% FBS at 37° C. in a humidified 5% CO2 atmosphere. Cells were plated in a 96-well plate (5×10^3 cells/well) and allowed to attach overnight. The cells were then stimulated with 10 U/ml of IFN-γ and 100 ng/ml of LPS for 24 hours in the presence or absence of tested compound with final concentration of 50, 25, 12.5, 6.25, 3.125 μg/mL, and Indometacin as positive drug.
iNOS function was analyzed with Griess reaction and was applied for measurement of nitrite concentration in the culture supernatant. Briefly, 100 μl/well of sample was incubated with equal volume of Griess solution at room temperature for 10 min. The absorbance was evaluated at 540 nm using a calibration curve with a sodium nitrite standard. Percent inhibition was expressed as [1-(NO level of sample/NO level of vehicle treated-control)]×100 (Table 1).

Assay [2] deals with miR-155 expression in stimulated RAW264.7 cells. As to the kind of experiment: Assay for microRNA155 expression in stimulated macrophages (qRT-PCR). In kind it is cell-based. To be noted: RAW264.7 cells, 1, 2, 4 μg/mL, 24 hours, FIG. 2. The procedure:
RAW264.7 cells were pretreated with tested sample (1,2,4 μg/mL,) for 1 hour and then stimulated for 24 hours. The cells were harvested. Total RNA was extracted and RNA concentrations were determined. Quantitative RT-PCR analyses on miRNAs were performed using TaqMan miR NA assays (Applied Biosystems, USA). 50 ng of RNA per reaction was subjected for RT reaction. RT reaction was carried out using the following conditions: 16° C. for 30 minutes, 42° C. for 30 minutes, and 85° C. for 5 minutes. Expression levels of the miRNAs were determined by qRT-PCR using TaqMan Expression Assays (Applied Biosystems, USA). RNU6 endogenous control was used for normalization, and expression levels were presented as ΔCt with standard deviation (FIG. 2).
As miR-155 plays an important role in the innate immune response or inflammation, the effect of 1,3,5,7-tetrahydroxy-8-isoprenylxanthone on the expression of miR-155 by qRT-PCR was evaluated. In FIG. 2, the cells were stimulated with 100 ng/ml of LPS and 10 U/ml of IFN-γ only or LPS plus different concentrations (1,2,4 μg/mL) of sample for 24 hours. Total RNA was isolated and the expression of miRNA-155 was determined by qRT-PCR. […] RNU6B was used here as an endogenous control. The data represent the mean±SD of triplicate experiments. **p<0.01 compared with the LPS plus IFN-γ.
For orientation: Real-time PCR tracks product formation cycle by cycle.

Assay [3] concerns Candida albicans secreted aspartic proteases (SAP). To be noted: Planta Med. 2002; 68(1):49-54; cited from earlier work.

Each structure is given as a SMILES string. In brackets after ≈: the same amount, converted by molar mass. Read-outs that look alike come from different tables or passages of the source.

The source of these data is patent publication US20140200265A1, “USAGE OF 1,3,5,7-TETRAHYDROXY-8-ISOPRENYLXANTHONE FOR TREATING INFLAMMATION” (Hong Kong Baptist University, priority 2013, published 2014).

A word on the inhibition: it is how much of the control response was suppressed.

For the compound `CC(C)=CCc1c(O)cc(O)c2oc3cc(O)cc(O)c3c(=O)c12` [1,3,5,7-tetrahydroxy-8-isoprenylxanthone], the IC50 in assay [1] (read-out: The inhibitory effect on NO accumulation, IC50) came to 5.06 µM; in assay [1] (read-out: The inhibitory effect on NO accumulation, IC50(μg/mL)), 1.66 µg/mL. Further, the “Effect on LPS plus IFN-γ-induced miR-155 expression” value in assay [2] was “reduced LPS plus IFN-γ-induced miR-155 expression in a dose-dependent manner”. Moreover, the “IC50 against Candida albicans secreted aspartic proteases (SAP)” value in assay [3] is 25 µg/mL (≈ 76.1 µM).
`COc1ccc2c(c1)c(CC(=O)O)c(C)n2C(=O)c1ccc(Cl)cc1` [Indometacin, reference compound]: in assay [1] (1 μg/mL, IFN-γ and LPS, read-out: The inhibitory effect on NO accumulation (percent inhibition)), the inhibition at 1 µg/mL was 46.5%.
